# From US8575188B2 (priority 2009, dated 2013)
# Like-named read-outs stand apart in the source and are kept apart here.
# Columns and labels:
# [1] = system: H69 small cell lung cancer line; assay: Efflux pump drug resistance, antiproliferation assay, parent line; type: cell-based; settings: air
# Experimental: (§1) The compounds were screened for cytotoxicity using human non small cell lung cancer cell line H460. […]
# (§2) Cellular drug resistance was determined using the antiproliferation assay described above.
# pcDNA = assay: as above; type: cell-based; settings: air
# Experimental: as §1, §2
# [2] = system: human colon cancer cell line HT-29; assay: Antiproliferation assay, 72 hrs under air, Alamar Blue; type: cell-based
# [3] = system: DX5, which over expresses the MDR 1 efflux pump; assay: Efflux pump drug resistance, antiproliferation assay, MDR 1 over expressing line; type: cell-based; settings: air
# Experimental: as §1, §2
# [4] = In vivo pharmacokinetics, oral gavage; settings: CD, mouse, in vivo, po; for AUC / Cmax: 50 mg/kg
# Experimental: The data normalized to a 50 mg/kg dose are shown below (compounds were dosed at either 25 or 50 mg/kg).
# [5] = system: Messa ovarian carcinoma cell line; assay: Efflux pump drug resistance, antiproliferation assay, parent line; type: cell-based; settings: air
# Experimental: […] Cells were treated with test compounds at various concentrations under air for 72 hrs, and then cell viability and proliferation were assessed by Alamar Blue staining.
# as §2
# [6] = system: human non small cell lung cancer cell line H460; assay: Antiproliferation (cytotoxicity) assay, 72 hrs under air, Alamar Blue; type: cell-based; settings: read-out: IC50
# [7] = system: MRP1 over expressing H69AR line; assay: Efflux pump drug resistance, antiproliferation assay, MRP1 over expressing line; type: cell-based; settings: Homo sapiens, air
# Experimental: as §1, §2
# [8] = system: mouse melanoma cell line B-16-F10; assay: Antiproliferation assay, 72 hrs under air, Alamar Blue; type: cell-based; settings: B16-F10
# [9] = Brain penetration, AUC in brain versus AUC plasma; settings: mouse
# Experimental: Certain compounds of the invention were assessed for brain penetration by comparing the AUC for plasma exposure versus the AUC in brain.
# H46O cells = assay: Selective hypoxic activation of 14-nitro prodrugs in cell culture; type: cell-based, human; settings: TH1431 at 1 micromolar, 24 hr
# Experimental: H46O cells were grown to a confluent monolayer and then the 14-nitro TH1332 prodrug was added to the media at 5 micromolar concentration. Incubations were done for 24 hour either under air or nitrogen (hypoxia), media and cells were recovered, sonicated and soluble extracts were isolated by acetonitrile precipitation of proteins. The level of amino TH1338 active cytotoxin were quantitated by liquid chromotagraphy mass spectra analysis. The equivalent of 70 nanomolar TH1338 was produced under hypoxia with undetectable levels being produced under air (less than 5 nanomolar).
# The analogous experiment was preformed using 1 micromolar concentration of the 14-nitro derivative TH1431. After 24 hr, 180 nanomolar of the 14 amino TH1499 was produced under nitrogen with undetectable levels produced under air (less than 5 nanomolar).
# human colon cancer HT-29 = assay: Xenograft model, subcutaneous, tumor growth inhibition and body weight loss; settings: for Max. BWL (%): mouse, in vivo, po
# Experimental: (§3) The first three models were produced by subcutaneous implantation of the appropriate number of cells into the flank of the animals. When tumor size was approximately 150 mm^3, animals were randomized into groups of 10 mice each for dosing. One arm was dosed with only vehicle and the results used for the efficacy calculations. […] TGI=(1−T/C) %. T/C ratio was calculated as T/C=(Tn−Ti)/(Cn−Ci), where Tn is tumor volume in treatment group on Day n, and Ti is the initial tumor volume in the treatment group. Cn is the tumor volume of the vehicle group on the last day of measurement. Ci is the initial tumor volume in the vehicle control group. Day n is the last measurement taken when all the animals in the vehicle group were not yet euthanized. Animals were euthanized when tumor volumes grew larger than 2000 mm^3.
# [10] = system: BCRP, which over expressed the breast cancer resistance protein; assay: Efflux pump drug resistance, antiproliferation assay, BCRP over expressing line
# Experimental: as §1, §2
# [11] = system: human prostate cancer cell line PC-3; assay: Antiproliferation assay, 72 hrs under air, Alamar Blue; type: cell-based; settings: read-out: PC3 IC50
# [12] = system: human melanoma cell line SKMEL-28; assay: as above; type: cell-based
# [13] = system: human melanoma cell line SKMEL2; assay: as above; type: cell-based
# [14] = system: bone marrow progenitor cells; assay: Bone marrow progenitor cell clonogenic assay (CFU-GM), human; settings: read-out: Human CFU-GM (IC50 nM) THLD
# Experimental: (§4) A clonogenic assay was performed using bone marrow progenitor cells derived from the blood of mice and humans.
# [15] = system: bone marrow progenitor cells; assay: Bone marrow progenitor cell clonogenic assay (CFU-GM), mouse; settings: read-out: Mouse CFU-GM (IC50 nM) THLD
# Experimental: as §4
# [16] = system: human melanoma cell line MAMLE-3M; assay: Antiproliferation assay, 72 hrs under air, Alamar Blue; type: cell-based
# [17] = stated as known for topotecan; cited from earlier work
# [18] = system: IGROV1 human ovarian cancer cells; assay: Xenograft model of metastatic ovarian cancer (i.p.), survival
# Experimental: One arm was dosed with only vehicle and the results used for the efficacy calculations. […] A xenograft model of metastatic ovarian cancer was set up by the intraperitoneal (i.p) injection of 3×10^6 IGROV1 human ovarian cancer cells in nude mice. Mice were evaluated twice a week for morbidity and mortality. Kaplan-Meier survival curves were plotted.
# [19] = system: human melanoma cell line A375; assay: Antiproliferation assay, 72 hrs under air, Alamar Blue; type: cell-based
# [20] = system: human prostate cancer cell line LNCap; assay: as above; type: cell-based
# [21] = system: human ovarian cancer cell line IGROV-1; assay: as above; type: cell-based
# [22] = system: human prostate cancer cell line DU145; assay: as above; type: cell-based
# [23] = system: human prostate cancer PC-3; assay: Xenograft model, subcutaneous, tumor growth inhibition and body weight loss
# Experimental: as §3
# [24] = system: human non small cell lung cancer H-460; assay: as above
# Experimental: as §3
# [25] = Bone marrow progenitor cell clonogenic assay (CFU-GM), human; settings: human
# Experimental: as §4
# [26] = Bone marrow progenitor cell clonogenic assay (CFU-GM), mouse; settings: mouse
# Experimental: as §4
# Oral bioavailability = settings: rat, in vivo, Sprague-Dawley rats
# Source text: Rats are often a useful species for predicting oral bioavailablity in humans.
# [27] = 72 h, 3 days, read-out: Air 3d H69 prol. IC50
# [28] = 72 h, 3 days, read-out: Air 3d pcDNA prol. IC50
# [29] = Homo sapiens, HT-29, read-out: HT29 IC50
# [30] = Homo sapiens, MES-SA, 72 h, 3 days, read-out: Air 3d MESSA prol. IC50
# [31] = Homo sapiens, NCI-H460, H460, inhibition of proliferation, 72 hrs under air
# [32] = 72 h, 3 days, read-out: Air 3d H69ar (MRP1) prol. IC50
# [33] = PC3, PO, QD × 5/wk, 2 weeks, 2 mg/Kg
# [34] = HT29, PO, QD × 5/wk, 4 weeks, 2 mg/Kg
# [35] = H460, PO, QD × 5/wk, 2 weeks, 2 mg/Kg
smiles,measurement,setting,value
CC[C@@]1(O)C(=O)OCc2c1c([N+](=O)[O-])c1n(c2=O)Cc2c-1nc1ccccc1c2/C=N/OC(C)(C)C [TH1431],IC50,[1]; [27],3790 nM
same,IC50,"[1]; 120 h, 5 days, read-out: Air 5d H69 prol. IC50",354 nM
same,IC50,pcDNA; [28],461 nM
same,IC50,"pcDNA; 120 h, 5 days, read-out: Air 5d pcDNA prol. IC50",67 nM
same,IC50,"pcDNA; 3 days, read-out: Air 3d pcDNA prol. IC50",900 nM
same,IC50,[2]; [29],288 nM
same,IC50,"[3]; MDR1, 120 h, 5 days, read-out: Air 5d DX5 prol. IC50",515 nM
same,AUC,[4],352 ng·h/mL
same,Cmax,[4],348 ng/mL
same,IC50,[5]; [30],2690 nM
same,IC50,"[5]; Homo sapiens, MES-SA, 120 h, 5 days, read-out: Air 5d MESSA prol. IC50",255 nM
same,IC50,"[5]; 3 days, read-out: Air 3d MESSA prol. IC50",3300 nM
same,IC50,[6]; [31],800 nM
same,IC50,[7]; [32],> 10000 nM
same,IC50,"[7]; 120 h, 5 days, read-out: Air 5d H69ar (MRP1) prol. IC50",838 nM
same,IC50,[8],720 nM
same,Kp,[9],0.12
same,TH1499 produced under air,"H46O cells; air, undetectable levels",less than 5 nanomolar
same,14 amino TH1499 produced under nitrogen,H46O cells; nitrogen,180 nM
same,TGI (%),"human colon cancer HT-29; HT29, PO, QD × 5/wk, 2 weeks, 25 mg/Kg",34.6%
same,Max. BWL (%),human colon cancer HT-29; 25 mg/kg,1.6%
same,IC50,"[10]; 120 h, read-out: Air 5d BCRP prol. IC50 nM, air, 5 days",78 nM
same,5d BCRP/pcDNA,"[10]; ratio of IC50s, BCRP over expressing versus parent line, 5 days",1.1642
same,IC50,[11]; Homo sapiens,29 nM
"CC[C@@]1(O)C(=O)OCc2c1cc1n(c2=O)Cc2cc3c(CN(C)C)c(O)ccc3nc2-1 [Topotecan, reference compound]",IC50,[12],> 10000 nM
same,IC50,[13]; read-out: SKMEL-2 IC50,140 nM
same,IC50,[14],8 nM
same,IC50,[2]; read-out: HT29 IC50,> 1000 nM
same,IC50,[15],130 nM
same,IC50,[6],45 nM
same,IC50,[16],1000 nM
same,brain levels in mice relative to plasma levels,[17],about 30%
same,T/C,"[18]; mouse, in vivo, 2 mg/kg",186
same,IC50,[19],13 nM
same,IC50,[20],9 nM
same,IC50,[21],160 nM
same,IC50,[22],30 nM
same,Max BWL (%),[23]; [33],1.3%
same,TGI (%),[23]; [33],79%
same,Max BWL (%),human colon cancer HT-29; [34],0%
same,TGI (%),human colon cancer HT-29; [34],70.3%
same,Max BWL (%),[24]; [35],8.9%
same,TGI (%),[24]; [35],46.1%
same,ratio BCRP over expressing line versus the parent cell line,[10]; not told,51
same,IC50,[11],45 nM
CCc1c2c(nc3ccccc13)-c1c(N)c3c(c(=O)n1C2)COC(=O)[C@]3(O)CC [TH1338],IC50,"[12]; Homo sapiens, SK-MEL-28",> 10000 nM
same,IC50,[1]; [27],110 nM
same,IC50,pcDNA; [28],4.3 nM
same,IC50,"[13]; Homo sapiens, SK-MEL-2, read-out: SKMEL-2 IC50",130 nM
same,IC50,"[14]; Homo sapiens, CFU-GM",100 nM
same,IC90,[25],650 nM
same,IC50,[2]; [29],302 nM
same,IC50,"[3]; MDR1, 72 h, 3 days, read-out: Air 3d DX5 prol. IC50",12 nM
same,IC50,"[15]; Mus musculus, CFU-GM",620 nM
same,IC90,[26],4500 nM
same,half-life,[4],4.17 h
same,AUC,[4],1070 ng·h/mL
same,Cmax,[4],250 ng/mL
same,IC50,[5]; [30],4.3 nM
same,IC50,[6]; [31],7.2 nM
same,IC50,[7]; [32],240 nM
same,IC50,[16]; Homo sapiens,1200 nM
same,T/C,"[18]; IGROV1 i.p., median survival treated / vehicle times 100, PO, QD × 5/wk, 4 weeks, 40 mg/Kg",221
same,IC50,"[19]; Homo sapiens, A-375",7 nM
same,IC50,"[20]; Homo sapiens, LNCaP",120 nM
same,Kp,[9],0.7
same,IC50,"[21]; Homo sapiens, IGROV-1",20 nM
same,IC50,"[22]; Homo sapiens, DU-145",18 nM
same,TGI (%),"[23]; PC3, PO, QD × 5/wk, 2 weeks, 40 mg/Kg",107%
same,Max. BWL (%),"[23]; mouse, in vivo, po, 40 mg/kg",7%
same,TGI (%),"human colon cancer HT-29; HT29, PO, QD × 5/wk, 4 weeks, 40 mg/Kg",100.7%
same,Max. BWL (%),human colon cancer HT-29; 40 mg/kg,2.9%
same,TGI (%),"[24]; H460, PO, QD × 5/wk, 2 weeks, 40 mg/Kg",84.3%
same,Max. BWL (%),"[24]; mouse, in vivo, po, 40 mg/kg",1.5%
same,bioavailability,Oral bioavailability,88.9%
same,IC50,"[10]; 72 h, read-out: Air 3d BCRP prol. IC50 nM, air, 3 days",4.9 nM
same,3d BCRP/pcDNA,"[10]; ratio of IC50s, BCRP over expressing versus parent line, 3 days",1.1395
same,IC50,[11]; Homo sapiens,24 nM
